Values quoted from earlier work in patent publication US20060100282A1, “Novel diaminopropane-based metal chelators as antiviral agents” (Bioflexis, LLC, priority 2004, published 2006).

Columns and labels:
[1] = molecular target: T1, HIV-1 integrase (IN) (Human immunodeficiency virus type 1 group M subtype B, UniProt P12497); conditions: result in words
T1 construct: HIV-1 recombinant IN (HIV-1NL 4-3 Integrase, NIH AIDS Reagent program Catalog No: 2959); purchased NIH AIDS Reagent program 2959

[2] = molecular target: T1, HIV-1 integrase (IN); conditions: result in words; remark: listed apart in the source

SMILES	inhibition of strand transfer reaction [1]	inhibition of 3′ processing [2]
O=C(O)C(=O)CC(=O)c1cc(OCc2ccccc2)cc(OCc2ccccc2)c1 [Inhibitor 6]	inhibit strand transfer reaction	do not inhibit 3′ processing
O=C(O)C(=O)CC(=O)c1cccn1Cc1ccc(F)cc1 [Inhibitor 8]	inhibit strand transfer reaction	do not inhibit 3′ processing
